According to patent publication US12157730B2, “Heteroaryl derivative, method for producing same, and pharmaceutical composition comprising same as effective component” (VORONOI INC., priority 2019, dated 2024):

target: T1, Ba/F3 cell EGFR Exon20 ins NPH (Homo sapiens, UniProt P00533, INS773NPH); experiment: Ba/F3 cell proliferation suppression, EGFR Exon20 ins NPH; assay type: cell-based; conditions: GI50 class; Ba/F3 cell line with NPH inserted at Exon20 of EGFR; 72 hours
T1 construct: expressed in transfected cells; host or cells: Ba/F3
Outline: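 Cells (3000–5000/well) plated 24 h before compound, 12-point 3-fold dilutions at 0.3 nM to 50 um final; Ba/F3 lines grown with 5 ng/ml IL-3. Viability by CellTiter-Glo luminescence after 72 h, growth ratio vs control, GI50 from curves; triplicate.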

Structure (SMILES)	Ba/F3 (NPH) Activity
C=CC(=O)Nc1cc(Nc2cc(N3OCC[C@@H]3Cc3ccc(C(F)(F)F)cc3)ncn2)c(OC)cc1N1CCC(N2C[C@@H]3C[C@H]2CO3)CC1 [compound 1052, N-(2-(4-((1S,4S)-2-oxa-5-azabicyclo [2.2.1]heptane-5-yl)piperidine-1-yl)-4-methoxy-5-((6-((S)-3-(4-(trifluoromethyl)benzyl)isoxazolidine-2-yl)pyrimidine-4-yl)amino)phenyl) acrylamide]	A (GI50 < 50 nM)
C=CC(=O)Nc1cc(Nc2cc(N3OCC[C@@H]3c3ccc(F)cc3F)ncn2)c(OC)cc1N1CCN(C2CC2)[C@@H](C)C1 [compound 479, N-(2-((S)-4-cyclopropyl-3-methylpiperazine-1-yl)-5-((6-((R)-3-(2,4-difluorophenyl)isoxazolidine-2-yl)pyrimidine-4-yl)amino)-4-methoxyphenyl) acrylamide]	A (GI50 < 50 nM)
C=CC(=O)Nc1cc(Nc2cc(N3OCC[C@@H]3c3cccc(Cl)c3)ncn2)c(OC)cc1N1CCC(N2CCN(C3CC3)CC2)CC1 [Example 138, N-(5-((6-((R)-3-(3-chlorophenyl)isoxazolidine-2-yl)pyrimidine-4-yl)amino)-2-(4-(4-cyclopropylpiperazine-1-yl)piperidine-1-yl)-4-methoxyphenyl) acrylamide]	A (GI50 < 50 nM)
C=CC(=O)Nc1cc(Nc2cc(N3OCC[C@H]3c3c(F)cccc3F)ncn2)c(OC)cc1N1C[C@H]2CCN(C)[C@H]2C1 [compound 898, N-(5-((6-((S)-3-(2,6-difluorophenyl)isoxazolidine-2-yl)pyrimidine-4-yl)amino)-4-methoxy-2-((3aR,6aR)-1-methylhexahydropyrrolo [3,4-b]pyrrole-5(1H)-yl)phenyl) acrylamide]	C (500 nM ≤ GI50 < 5000 nM)
C=CC(=O)Nc1cc(Nc2cc(N3OCC[C@@H]3c3cccc(F)c3F)ncn2)c(OC)cc1N1CC2CCC(C1)O2 [compound 887, N-(2-(8-oxa-3-azabicyclo[3.2.1]octan-3-yl)-5-((6-((R)-3-(2,3-difluorophenyl)isoxazolidine-2-yl)pyrimidine-4-yl)amino)-4-methoxyphenyl) acrylamide]	A (GI50 < 50 nM)
C=CC(=O)Nc1cc(Nc2cc(N3OCC[C@@H]3c3ccc4ccccc4c3)ncn2)c(OC)cc1N1C[C@@H](C)O[C@@H](C)C1 [compound 664, N-(2-((2S,6R)-2,6-dimethylmorpholino)-4-methoxy-5-((6-((R)-3-(naphthalene-2-yl)isoxazolidine-2-yl)pyrimidine-4-yl)amino)phenyl)acrylamide]	C (500 nM ≤ GI50 < 5000 nM)
C=CC(=O)Nc1cc(Nc2cc(N3OCC[C@@H]3Cc3ccccc3)ncn2)c(OC)cc1N1CCN(C2CCOCC2)CC1 [compound 971, N-(5-((6-((S)-3-benzylisoxazolidine-2-yl)pyrimidine-4-yl)amino)-4-methoxy-2-(4-(tetrahydro-2H-pyran-4-yl)piperazine-1-yl)phenyl) acrylamide]	A (GI50 < 50 nM)
C=CC(=O)Nc1cc(Nc2cc(N3OCC[C@@H]3c3ccc(Cl)cc3)ncn2)c(OC)cc1N1CCC(N2CCN(C3CCC3)CC2)CC1 [Example 75, N-(5-((6-((R)-3-(4-chlorophenyl)isoxazolidine-2-yl)pyrimidine-4-yl)amino)-2-(4-(4-cyclobutylpiperazine-1-yl)piperidine-1-yl)-4-methoxyphenyl) acrylamide]	A (GI50 < 50 nM)
C=CC(=O)Nc1cc(Nc2cc(N3OCC[C@@H]3c3ccc(F)c(Cl)c3)ncn2)c(OC)cc1N(C)CCN(C)C [compound 701, N-(5-((6-((R)-3-(3-chloro-4-fluorophenyl)isoxazolidine-2-yl)pyrimidine-4-yl)amino)-2-((2-(dimethylamino)ethyl)(methyl)amino)-4-methoxyphenyl) acrylamide]	A (GI50 < 50 nM)
C=CC(=O)Nc1cc(Nc2cc(N3OCC[C@@H]3c3cccc(Cl)c3F)ncn2)c(OC)cc1N1CCC(N2CCC(N(C)C)CC2)CC1 [compound 915, N-(5-((6-((R)-3-(3-chloro-2-fluorophenyl)isoxazolidine-2-yl)pyrimidine-4-yl)amino)-2-(4-(dimethylamino)-[1,4'-bipiperidine]-1'-yl)-4-methoxyphenyl) acrylamide]	B (50 nM ≤ GI50 < 500 nM)
C=CC(=O)Nc1cc(Nc2cc(N3OCC[C@@H]3c3ccc(F)cc3)ncn2)c(OC)cc1N1CCC(N2CC[C@H](N(C)C)C2)CC1 [compound 811, N-(2-(4-((S)-3-(dimethylamino)pyrolidine-1-yl)piperidine-1-yl)-5-((6-((R)-3-(4-fluorophenyl)isoxazolidine-2-yl)pyrimidine-4-yl)amino)-4-methoxyphenyl) acrylamide]	A (GI50 < 50 nM)
C=CC(=O)Nc1cc(Nc2cc(N3OCC[C@@H]3c3ccccc3)ncn2)c(OC)cc1N1CCC(N2CCC(N(C)C)CC2)CC1 [compound 740, N-(2-(4-(dimethylamino)-[1,4'-bipiperidine]-1'-yl)-4-methoxy-5-((6-((R)-3-phenylisoxazolidine-2-yl)pyrimidine-4-yl)amino)phenyl)acrylamide]	A (GI50 < 50 nM)
C=CC(=O)Nc1cc(Nc2cc(N3OCC[C@@H]3c3cccc(Cl)c3)ncn2)c(OC)cc1N1CCC(N2CCN(C)CC2)CC1 [compound 416]	A (GI50 < 50 nM)
C=CC(=O)Nc1cc(Nc2cc(N3OCC[C@@H]3c3ccc(F)cc3F)ncn2)c(OC)cc1N1CCC(N2CCN(C)CC2)CC1 [compound 352, N-(5-((6-((R)-3-(2,4-difluorophenyl)isoxazolidine-2-yl)pyrimidine-4-yl)amino)-4-methoxy-2-(4-(4-methylpiperazine-1-yl)piperidine-1-yl)phenyl) acrylamide]	A (GI50 < 50 nM)
C=CC(=O)Nc1cc(Nc2cc(N3OCC[C@@H]3c3cccc4ccccc34)ncn2)c(OC)cc1N1CCC(N2C[C@@H](C)O[C@@H](C)C2)CC1 [compound 491, N-(2-(4-((2S,6R)-2,6-dimethylmorpholino)piperidine-1-yl)-4-methoxy-5-((6-((R)-3-(naphthalene-1-yl)isoxazolidine-2-yl)pyrimidine-4-yl)amino)phenyl)acrylamide]	B (50 nM ≤ GI50 < 500 nM)
C=CC(=O)Nc1cc(Nc2cc(N3OCC[C@@H]3Cc3ccccc3)ncn2)c(OC)cc1N1C[C@@H]2C[C@H]1CO2 [compound 962, N-(5-((6-((S)-3-benzylisoxazolidine-2-yl)pyrimidine-4-yl)amino)-2-((1S,4S)-2-oxa-5-azabicyclo [2.2.1]heptane-5-yl)-4-methoxyphenyl) acrylamide]	A (GI50 < 50 nM)
C=CC(=O)Nc1cc(Nc2cc(N3OCC[C@@H]3c3ccc(F)c(Cl)c3)ncn2)c(OC)cc1N1CCN(C(C)C)CC1 [compound 724, N-(5-((6-((R)-3-(3-chloro-4-fluorophenyl)isoxazolidine-2-yl)pyrimidine-4-yl)amino)-2-(4-isopropylpiperazine-1-yl)-4-methoxyphenyl) acrylamide]	A (GI50 < 50 nM)
C=CC(=O)Nc1cc(Nc2cc(N3OCC[C@@H]3c3cc(F)ccc3F)ncn2)c(OC)cc1N1CC[C@H](N(C)C)C1 [compound 301, N-(5-((6-((R)-3-(2,5-difluorophenyl)isoxazolidine-2-yl)pyrimidine-4-yl)amino)-2-((S)-3-(dimethylamino)pyrolidine-1-yl)-4-methoxyphenyl) acrylamide]	A (GI50 < 50 nM)
C=CC(=O)Nc1cc(Nc2cc(N3OCC[C@@H]3Cc3ccccc3)ncn2)c(OC)cc1N1C[C@H]2C[C@@H]1CN2CC [compound 949, N-(5-((6-((S)-3-benzylisoxazolidine-2-yl)pyrimidine-4-yl)amino)-2-((1R,4R)-5-ethyl-2,5-diazabicyclo [2.2.1]heptane-2-yl)-4-methoxyphenyl) acrylamide]	A (GI50 < 50 nM)
C=CC(=O)Nc1cc(Nc2cc(N3OCC[C@@H]3c3ccc(F)c(F)c3F)ncn2)c(OC)cc1N1CCN(CC)CC1 [compound 570, N-(2-(4-ethylpiperazine-1-yl)-4-methoxy-5-((6-((R)-3-(2,3,4-trifluorophenyl)isoxazolidine-2-yl)pyrimidine-4-yl)amino)phenyl) acrylamide]	A (GI50 < 50 nM)
C=CC(=O)Nc1cc(Nc2cc(N3OCC[C@@H]3c3ccc(Cl)c(F)c3)ncn2)c(OC)cc1N1CCOCC1 [compound 854, N-(5-((6-((R)-3-(4-chloro-3-fluorophenyl)isoxazolidine-2-yl)pyrimidine-4-yl)amino)-4-methoxy-2-morpholinophenyl) acrylamide]	A (GI50 < 50 nM)
C=CC(=O)Nc1cc(Nc2cc(N3OCC[C@@H]3c3cc(F)cc(F)c3)ncn2)c(OC)cc1N1CCC(N2CCN(C3CC3)C[C@H]2C)CC1 [Example 112, N-(2-(4-((R)-4-cyclopropyl-2-methylpiperazine-1-yl)piperidine-1-yl)-5-((6-((R)-3-(3,5-difluorophenyl)isoxazolidine-2-yl)pyrimidine-4-yl)amino)-4-methoxyphenyl) acrylamide]	A (GI50 < 50 nM)
C=CC(=O)Nc1cc(Nc2cc(N3OCC[C@@H]3c3cc(F)cc(F)c3)ncn2)c(OC)cc1N1CCC(N2CCN(C3CCCC3)CC2)CC1 [Example 98, N-(2-(4-(4-cyclopentylpiperazine-1-yl)piperidine-1-yl)-5-((6-((R)-3-(3,5-difluorophenyl)isoxazolidine-2-yl)pyrimidine-4-yl)amino)-4-methoxyphenyl) acrylamide]	A (GI50 < 50 nM)
C=CC(=O)Nc1cc(Nc2cc(N3OCC[C@@H]3c3cccc(C)c3F)ncn2)c(OC)cc1N1CCC(N2CC[C@@H](N(C)C)C2)CC1 [compound 418, N-(2-(4-((R)-3-(dimethylamino)pyrolidine-1-yl)piperidine-1-yl)-5-((6-((R)-3-(2-fluoro-3-methylphenyl)isoxazolidine-2-yl)pyrimidine-4-yl)amino)-4-methoxyphenyl) acrylamide]	A (GI50 < 50 nM)
